Data on one molecule can be found in patent publication US20190202836A1, “SELECTIVE DUAL INHIBITORS OF PI3 DELTA AND GAMMA PROTEIN KINASES” (Rhizen Pharmaceuticals SA, priority 2014, published 2019).

Series [1] in a line: Metabolic stability in rat liver microsomes. Type of series: in vitro ADME. The settings on record: 1 μM test item, 60 minutes, 37° C., NADPH. The method, then:
(§1) Metabolic stability studies were conducted on Compounds A, A1, and A2 as well as Example 128 of WO 2012/151525 using mouse, rat, dog, monkey, and human liver microsomes. The protocol for the studies with mouse, rat, and human liver microsomes (all from BD Gentest, USA) is provided below. 0.4 mg protein was preincubated with 2 mM NADPH (cofactor) in phosphate buffer (pH-7.4) for 15 minutes at 37° C. and then added with 1 μM test item and incubated further for 60 minutes in triplicate. The reaction mixture was terminated with methanol containing an internal standard and centrifuged further to analyze the test item remaining in the supernatant by LC-MS/MS. The percent parent compound remaining was calculated in comparison with similar samples terminated at 0 minutes.

Series [2] can be described thus: Metabolic stability in mouse liver microsomes. Type of series: in vitro ADME. As to conditions: 1 μM test item, 60 minutes, 37° C., NADPH. The method, then: as §1
The next series relates to Female Wistar rats. The experiment in a line: Assay 8: Lipopolysaccharide-induced rat air pouch model of inflammation. Type of series: in vivo. The settings on record: Neutrophil, oral, 1, 3 and 10 mg/kg, pouch fluid 6 h after LPS, read-out: ED50, reduction of neutrophil migration into the rat air pouch. The method, then:
Female Wistar rats (175-200 g) were acclimatized for seven days prior to the start of the experiment. Animals were randomly distributed to various groups based on their body weights. Animals were anaesthetised with ether and subcutaneous air pouches were made by injecting 20 ml of sterile air under the skin in the intra-scapular area (day 0) and maintained with a second 10 ml injection of sterile-filtered air on day 4. On day 6, oral treatment was commenced 1 hour prior to induction of inflammation by s.c. injection of LPS solution on day 6. A volume of 5 ml of LPS solution dissolved in sterile saline (100 μg/kg) was injected into each pouch. Samples of pouch fluid were taken at 6 h after administration of LPS by flushing the pouch with 5 ml of sterile saline and withdrawing 4 ml of fluid. The number of leukocytes present in pouch fluid was determined microscopically using a haemocytometer. Differential cell content was determined by microscopic examination of fluid smears stained with Diff-Quik.

The next series relates to IL-4. The experiment in a line: Assay 6A: Cytokine assay in human PBMC, PHA induced IL-4. Type of series: cell-based. The settings on record: PHA 20 μg/ml, 48 hours, 2-3 independent experiments, read-out: EC50, antigen-induced IL-4. The method, then: (§2) The objective of this study was to assess the inhibitory potential of Compound A1 on antigen-induced cytokine release in human PBMC
(§3) • Heparinized human whole blood was diluted 1:1 with PBS, over laid on leukocyte separation medium and centrifuged at 400 g for 40 minutes. • Buffy layer was removed and washed with PBS • 0.15*10^6 of PBMCs were plated in 100 μl per well in RPMI media and incubated for 2 h. • 50 μl of 3× of the compound dilution in media was added and incubated for 15 min. • TNFα—induced with 50 μl of LPS in RPMI such that final concentration was 1 μg/ml. Supernatant was collected at 6 hours. • IL-2-induced with 50 μl of PHA in RPMI such that final concentration was 20 μg/ml. Supernatant was collected at 24 hours. • IL-4-induced with 50 μl of PHA in RPMI such that final concentration was 20 μg/ml.
(§4) EC50 values were calculated from 2-3 independent experiments.

Series [3] in a line: Oral pharmacokinetics in rats. The format is in vivo. The settings on record: Rat, 10 mg/kg. The method, then:
The oral bioavailability of Compound A1 (free base) was evaluated in rats and mice. The protocol for the pharmacokinetics studies in rat is provided below.
All animals were fasted overnight (12 hours) before dosing and continued till 4.0 hours after administration of test item. Test item formulations were prepared in 1% Tween 80 and 99% media (0.5% Methyl cellulose, 4000cPs, pH 2.2). The blood samples (150 μL from each animal) were collected from the orbital sinus, and placed into a micro centrifuge tube containing disodium EDTA as an anticoagulant. Blood samples were centrifuged immediately with a speed of 1000 g for 10 min at 4° C. and separated plasma samples were frozen at below −80° C. and stored until analysis. The concentrations of test item in all formulations were analyzed by HPLC. The plasma concentrations of test item in all samples were analyzed by LC-MS/MS. Pharmacokinetic parameters (Cmax, AUC0-t, Tmax, and t^1/2) were estimated by using WinNonlin software. Results are provided in Table 3 for Compound A, A1, and Example 128 of WO 2012/151525 in rats and Compound A1 in mice.

Series [4] can be described thus: Plasma protein binding (equilibrium dialysis), mouse. The format is in vitro ADME. The settings on record: pH 7.4, 37° C. The method, then: (§5) Below is provided the procedure for measuring plasma protein binding (using an equilibrium dialysis method). 745 μL of plasma was transferred into a 2 ml micro centrifuge tube. To that 5 μL of Compound A1 (150 μM) was added. Samples were mixed in the table top vortexer for 2 minutes. 50 μL plasma (n=2) was transferred in a pre-labeled 1.5 mL micro centrifuge tube treated as 0 hour sample.
(§6) The remaining 650 μL plasma sample were incubated for 30 minutes at 37° C. in a water bath. After 30 minute incubation, 50 μL plasma (n=2) was removed in a pre-labelled 1.5 mL micro centrifuge tube treated as 0.5 hour sample. 200 μL of the plasma sample (n=2) was transferred into the sample chamber which was indicated by the red ring. The red insert was placed into the base plate and 350 μL of buffer was transferred into the buffer chamber. Plates were incubated at 37° C. at approximately 100 RPM on an orbital shaker or 20 RPM on an up-and-down shaker for 4 hours. 50 μL of post dialysis-sample from the buffer and the plasma chambers were transferred into a pre-labelled micro centrifuged tube. 50 μL of plasma was added to the buffer samples and an equal volume of buffer (KH2PO4 Buffer pH 7.4) to the collected plasma samples. 150 μL of methanol containing internal standard (Tolbutamide 250 ng/ml) was added to precipitate the protein and release compound. […]

The subject of series [5] is pAKT in T-lymphoma (MOLT-4, Jurkat, CCRF-CEM and Hut-78) cell lines. The experiment in a line: Assay 3: Inhibition of AKT phosphorylation in leukemic cell lines. Type of series: cell-based. As to conditions: 48 hours, Western Blotting, range over the cell lines, read-out: EC50, reduction in pAKT expression. The method, then:
MOLT-4, Jurkat, CCRF-CEM, and Hut-78 cells were incubated with desired concentrations of compound for 48 hours. Cells were lysed and pAKT determined by Western Blotting. Bands were quantified using ImageJ and normalized to actin.

Series [6] can be described thus: Metabolic stability in dog liver microsomes. Type of series: in vitro ADME.
Another series has as its system IL-2. Kind of series: Assay 6A: Cytokine assay in human PBMC, PHA induced IL-2. The format is cell-based. The settings on record: PHA 20 μg/ml, 24 hours, 2-3 independent experiments, read-out: EC50, antigen-induced IL-2. The method, then:
as §2, §3, §4

Series [7] in a line: Plasma protein binding (equilibrium dialysis), rat. The format is in vitro ADME. The settings on record: pH 7.4, 37° C. The method, then:
as §5, §6

Each structure is given as a SMILES string. pEC50: −log10 of the molar value.

With `COc1ccc(-c2nn([C@@H](C)c3oc4cccc(F)c4c(=O)c3-c3cccc(F)c3)c3ncnc(N)c23)cc1NS(C)(=O)=O` [Compound A1, (S)—N-(5-(4-amino-1-(1-(5-fluoro-3-(3-fluorophenyl)-4-oxo-4H-chromen-2-yl)ethyl)-1H-pyrazolo[3,4-d]pyrimidin-3-yl)-2-methoxyphenyl)methanesulfonamide], in series [1], the “Metabolic stability in liver microsomes (percent parent compound remaining), Rat” value was found to be 94.2%. For the same molecule, the “Metabolic stability in liver microsomes (percent parent compound remaining), Mouse” value in [2] came to 85.9%. Moreover, the ED50 in the series with Female Wistar rats worked out at 2.65 mg/kg. The pEC50 in the series with IL-4 is 8.46. Moreover, in series [3], the “fold increase in AUC0-t as compared to Example 128 of WO 2012/151525” value is 48 fold, the “fold increase in Cmax as compared to Example 128 of WO 2012/151525” value is reported as about 16 fold and the “fold increase in t1/2 as compared to Example 128 of WO 2012/151525” value is about 1.6 fold. Also, in series [3] (plasma), the area under the curve AUC(0-t) was 97.8 µM·h, the Cmax was found to be 11.4 µM, the Tmax was determined as 1.83 h and the half-life was 2.45 h. Moreover, in [4], the fraction unbound at 4 h, 1 μM is 0.0239. For the same molecule, the pEC50 in series [5] was 5.80 to 7.70. The “Metabolic stability in liver microsomes (percent parent compound remaining), Dog” value in series [6] came to 83.5%. In the series with IL-2, the pEC50 was 8.02. This molecule had a fraction unbound at 4 h, 1 μM in series [7] of 0.0096.
